{"source": "patent US8901139B2", "about": "“Tricyclic indole derivatives and methods of use thereof” (Merck Sharp & Dohme Corp., priority 2008, dated 2014)"}
{"tested_on": "HCV replicon cells (replicon RNA level)", "assay": "Cell-Based HCV Replicon Assay", "details": "Hepatitis C virus, 72 h; replicon RNA by real time PCR (Taqman), day 3; ΔCT=3.2 over baseline", "protocol": "To measure cell-based anti-HCV activity of the a Compound of Formula (I), replicon cells were seeded at 5000 cells/well in 96-well collagen I-coated Nune plates in the presence of the Compound of Formula (I). Various concentrations of a Compound of Formula (I), typically in 10 serial 2-fold dilutions, were added to the assay mixture, with the starting concentration ranging from 250 μM to 1 μM. The final concentration of DMSO was 0.5%, fetal bovine serum was 5%, in the assay media. Cells were harvested on day 3 by the addition of 1× cell lysis buffer (Ambion cat #8721). The replicon RNA level was measured using real time PCR (Taqman assay). The amplicon was located in 5B. The PCR primers were: 5B.2F, ATGGACAGGCGCCCTGA (SEQ. ID. NO. 2); 5B.2R, […] (SEQ. ID. NO. 3);the probe sequence was FAM-labeled CACGCCATGCGCTGCGG (SEQ. ID. NO. 4). GAPDH RNA was used as endogenous control and was amplified in the same reaction as NS5B (multiplex PCR) using primers and VIC-labeled probe recommended by the manufacturer (PE Applied Biosystem). The real-time RT-PCR reactions were run on ABI PRISM 7900HT Sequence Detection System using the following program: 48° C. for 30 minutes, 95° C. for 10 minutes, 40 cycles of 95° C. for 15 sec, 60° C. for 1 minute. The ΔCT values (CT5B-CTGAPDH) were plotted against the concentration of test compound and fitted to the sigmoid dose-response model using XLfit4 (MDL). EC50 was defined as the concentration of inhibitor necessary to achieve ΔCT=1 over the projected baseline; EC90 the concentration necessary to achieve ΔCT=3.2 over the baseline. Alternatively, to quantitate the absolute amount of replicon RNA, a standard curve was established by including serially diluted T7 transcripts of replicon RNA in the Taqman assay. All Taqman reagents were from PE Applied Biosystems. Such an assay procedure was described in detail in e.g. Malcolm et al., Antimicrobial Agents and Chemotherapy 50: 1013-1020 (2006).\nHCV replicon assay data was calculated for selected compounds of the present invention using this method.", "units": {"EC90": "nM"}}
{"smiles": "N#Cc1ccc(F)c(Cn2c(C(=O)O)c(-c3ccc[nH]c3=O)c3c4occc4c(F)cc32)c1", "note": "[Compound 129]", "EC90": "< 100"}
{"smiles": "O=Cc1ccc(F)c(Cn2c(C(=O)O)c(-c3ccc[nH]c3=O)c3c4occc4c(F)cc32)c1", "note": "[Compound 131]", "EC90": "< 100"}
{"smiles": "Cc1cc2[nH]ncc2cc1Cn1c(C(=O)O)c(-c2ccc[nH]c2=O)c2c3occc3c(F)cc21", "note": "[Compound 136]", "EC90": "< 100"}
{"smiles": "O=C(O)c1c(-c2ccc[nH]c2=O)c2c3occc3c(F)cc2n1Cc1cc2cn[nH]c2cc1Cl", "note": "[Compound 150]", "EC90": "< 100"}
{"smiles": "O=C(O)c1c(-c2ccc[nH]c2=O)c2c3c(c(F)cc2n1Cc1cc2cn[nH]c2cc1Cl)CCO3", "note": "[Compound 157]", "EC90": "< 100"}
{"smiles": "Nc1ncnc2cc(F)c(Cn3c(C(=O)O)c(-c4ccc[nH]c4=O)c4c5occc5c(F)cc43)cc12", "note": "[Compound 161]", "EC90": "< 100"}
{"smiles": "Cn1cnc2cc(Cl)c(Cn3c(C(=O)O)c(-c4ccc[nH]c4=O)c4c5occc5c(F)cc43)cc21", "note": "[Compound 162]", "EC90": "< 100"}
{"smiles": "O=C(O)c1c(-c2ccc[nH]c2=O)c2c3occc3c(F)cc2n1Cc1cc2c(=O)[nH]cnc2cc1Cl", "note": "[Compound 164]", "EC90": "< 100"}
{"smiles": "O=C(O)c1c(-c2ccc[nH]c2=O)c2c3c(c(F)cc2n1Cc1cc2c(=O)[nH]c(=O)[nH]c2cc1F)CCO3", "note": "[Compound 165]", "EC90": "< 100"}
{"smiles": "O=C(O)c1c(-c2ccc[nH]c2=O)c2c3occc3c(F)cc2n1Cc1cc2cc[nH]c2cc1Br", "note": "[Compound 170]", "EC90": "< 100"}
{"smiles": "Cc1cc2[nH]ncc2cc1Cn1c(C(=O)OCCN(C)C)c(-c2ccc[nH]c2=O)c2c3occc3c(F)cc21", "note": "[Compound 172]", "EC90": "< 100"}
{"smiles": "CN(C)CCOC(=O)c1c(-c2ccc[nH]c2=O)c2c3c(c(F)cc2n1Cc1cc2cn[nH]c2cc1F)CCO3", "note": "[Compound 174]", "EC90": "< 100"}
{"smiles": "CN(C)CCOC(=O)c1c(-c2ccc[nH]c2=O)c2c3occc3c(F)cc2n1Cc1cc(N)nc2ccccc12", "note": "[Compound 177]", "EC90": "< 100"}
{"smiles": "CN(C)CCOC(=O)c1c(-c2ccc[nH]c2=O)c2c3occc3c(F)cc2n1Cc1cc2c(N)ncnc2cc1F", "note": "[Compound 185]", "EC90": "< 100"}
{"smiles": "C=CCNCCOC(=O)c1c(-c2ccc[nH]c2=O)c2c3occc3c(F)cc2n1Cc1cc2cn[nH]c2cc1CC=C", "note": "[Compound 188]", "EC90": "< 100"}
{"smiles": "CN(C)CCCOC(=O)c1c(-c2ccc[nH]c2=O)c2c3occc3c(F)cc2n1Cc1cc2c(=O)[nH]cnc2cc1F", "note": "[Compound 189]", "EC90": "< 100"}
